System: B16-OVA melanoma
Experiment: Adoptive transfer of OT-II Th9 cells with anti-PD-1, B16-OVA tumor growth (Figure 2I)
Assay type: in vivo, C57BL/6 mice
Conditions: EpA-Th9 cells with anti-PD-1; result in words
Excerpt: (A) Schematic of the therapeutic model. C57BL/6 mice were subcutaneously inoculated with B16-OVA melanoma cells (5 × 10^5) and preconditioned with cyclophosphamide (CTX) on day 4. […] (B–G) Flow-cytometric analysis of transferred CD45.1^+ OT-II Th9 cells (B and C) and endogenous CD4^+ (D and E) and CD8^+ T cells (F and G) in spleens and tumors, showing frequencies and absolute numbers (n = 4 mice per group). (H) Tumor growth curves in B16-OVA–bearing C57BL/6 or β2-microglobulin–deficient (β2m-KO) mice following transfer of control or EpA-treated OT-II Th9 cells (n = 4 mice per group). (I) C57BL/6 mice bearing B16-OVA tumors were treated with control or EpA-induced OT-II Th9 cells (2 × 10^6, i.v., day 5), followed by anti–PD-1 antibody (200 μg, i.p.) on day 7, and (100 μg, i.p.) on day 10 and 12. Tumor growth is shown with individual trajectories (n = 6 mice per group). Statistical analysis was performed using 2-tailed unpaired Student’s t test ([…], B–G) or 1-way ANOVA with Tukey’s post hoc test (H and I). All data are presented as the mean ± SEM. *P < 0.05, **P < 0.01, ***P < 0.001. Schematic in A created using BioRender (https://Biorender.com).
Finally, we examined whether the CD8^+ T cell–supporting capacity of EpA-Th9 cells could synergize with immune checkpoint blockade (ICB) therapy. […]

## anteiso-C15 Leu7 surfactin [EpA]
  response to PD-1 blockade: significantly enhanced the therapeutic response to PD-1 blockade

Source: publication PMC12867150, “A fungi-derived cyclic peptide enhances Th9-mediated antitumor immunity by targeting ZAP70 and SREBP1” (The Journal of Clinical Investigation, 2025)
